# From patent publication US9169254B2, “Spiroimidazolone derivative” (Chugai Seiyaku Kabushiki Kaisha, priority 2009, dated 2015)
# Target: T1, human PTH1 receptor (Homo sapiens, UniProt Q03431)
# T1 sequence (Q03431 27-593): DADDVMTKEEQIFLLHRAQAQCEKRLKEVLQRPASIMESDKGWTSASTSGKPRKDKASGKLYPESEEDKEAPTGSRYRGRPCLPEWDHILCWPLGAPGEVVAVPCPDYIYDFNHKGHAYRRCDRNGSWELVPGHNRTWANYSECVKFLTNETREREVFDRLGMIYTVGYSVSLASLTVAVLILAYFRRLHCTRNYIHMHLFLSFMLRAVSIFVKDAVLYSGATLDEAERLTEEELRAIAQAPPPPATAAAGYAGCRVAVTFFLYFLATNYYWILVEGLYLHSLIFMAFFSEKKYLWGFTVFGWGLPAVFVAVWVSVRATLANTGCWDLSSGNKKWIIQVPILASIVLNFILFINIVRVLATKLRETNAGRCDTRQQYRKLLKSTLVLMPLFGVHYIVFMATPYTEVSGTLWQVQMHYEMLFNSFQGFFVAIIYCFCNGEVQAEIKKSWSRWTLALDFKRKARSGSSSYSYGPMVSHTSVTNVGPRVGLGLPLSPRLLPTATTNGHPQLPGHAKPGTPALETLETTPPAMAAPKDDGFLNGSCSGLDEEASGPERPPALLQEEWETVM
# Test: In vitro cAMP signal activity in HKRK-B7 cells (LLC-PK1 cells overexpressing the human PTH1 receptor)
# Assay type: cell-based
# Details: HKRK-B7 cells; compound at 1×10^−3 M; cAMP produced as percentage of that produced by hPTH(1-34) at 100 nM
row,cAMP production activity (%),SMILES
1,43%,"Cc1cc(N2C(=O)NC(C)(C)C2=O)cc(C)c1/C=C/S(=O)(=O)N1CCC2(CC1)N=C(C1CCC(C)CC1)NC2=O (stereo not drawn) [Compound 507, 3-(3,5-dimethyl-4-{(E)-2-[2-(4-methyl-cyclohexyl)-4-oxo-1,3,8-triaza-spiro[4.5]dec-1-ene-8-sulfonyl]-vinyl}-phenyl)-5,5-dimethyl-imidazolidine-2,4-dione]"
2,24%,"Cc1cc(N2C(=O)N(C)C(C)(C)C2=O)cc(C)c1/C=C/S(=O)(=O)N1CCC2(CC1)N=C(C1CCC(C)CC1)NC2=O (stereo not drawn) [Compound 508, 3-(3,5-dimethyl-4-{(E)-2-[2-(4-methyl-cyclohexyl)-4-oxo-1,3,8-triaza-spiro[4.5]dec-1-ene-8-sulfonyl]-vinyl}-phenyl)-1,5,5-trimethyl-imidazolidine-2,4-dione]"
3,29%,"Cc1cc(N2C(=O)NC(C)(C)C2=O)ccc1/C=C/S(=O)(=O)N1CCC2(CC1)N=C(C1CCC(C)CC1)NC2=O (stereo not drawn) [Compound 511, 5,5-dimethyl-3-(3-methyl-4-{(E)-2-[2-(4-methyl-cyclohexyl)-4-oxo-1,3,8-triaza-spiro[4.5]dec-1-ene-8-sulfonyl]-vinyl}-phenyl)-imidazolidine-2,4-dione]"
4,33%,"Cc1cc(N2CCOC2=O)ccc1/C=C/S(=O)(=O)N1CCC2(CC1)N=C(C1CCC(C)CC1)NC2=O (stereo not drawn) [Compound 513, 2-(4-methyl-cyclohexyl)-8-{(E)-2-[2-methyl-4-(2-oxo-oxazolidin-3-yl)-phenyl]-ethenesulfonyl}-1,3,8-triaza-spiro[4.5]dec-1-en-4-one]"
5,75%,"COCCN(C(C)=O)c1cc(C)c(/C=C/S(=O)(=O)N2CCC3(CC2)N=C(C2CCC(C)CC2)NC3=O)c(C)c1 (stereo not drawn) [Compound 514, N-(3,5-dimethyl-4-{(E)-2-[2-(4-methyl-cyclohexyl)-4-oxo-1,3,8-triaza-spiro[4.5]dec-1-ene-8-sulfonyl]-vinyl}-phenyl)-N-(2-methoxy-ethyl)-acetamide]"
6,113%,"Cc1cc(N2CCOCC2=O)cc(C)c1/C=C/S(=O)(=O)N1CCC2(CC1)N=C(C1CCC(C)CC1)NC2=O (stereo not drawn) [Compound 515, 8-{(E)-2-[2,6-dimethyl-4-(3-oxo-morpholin-4-yl)-phenyl]-ethenesulfonyl}-2-(4-methyl-cyclohexyl)-1,3,8-triaza-spiro[4.5]dec-1-en-4-one]"
7,73%,"Cc1cc(N2CCCCC2=O)cc(C)c1/C=C/S(=O)(=O)N1CCC2(CC1)N=C(C1CCC(C)CC1)NC2=O (stereo not drawn) [Compound 516, 8-{(E)-2-[2,6-dimethyl-4-(2-oxo-piperidin-1-yl)-phenyl]-ethenesulfonyl}-2-(4-methyl-cyclohexyl)-1,3,8-triaza-spiro[4.5]dec-1-en-4-one]"
8,58%,"CC(=O)N(C)Cc1cc(C)c(/C=C/S(=O)(=O)N2CCC3(CC2)N=C(C2CCC(C)CC2)NC3=O)c(C)c1 (stereo not drawn) [Compound 517, N-(3,5-dimethyl-4-{(E)-2-[2-(4-methyl-cyclohexyl)-4-oxo-1,3,8-triaza-spiro[4.5]dec-1-ene-8-sulfonyl]-vinyl}-benzyl)-N-methyl-acetamide]"
9,68%,"Cc1cc(CN2C(=O)CNC2=O)cc(C)c1/C=C/S(=O)(=O)N1CCC2(CC1)N=C(C1CCC(C)CC1)NC2=O (stereo not drawn) [Compound 518, 3-(3,5-dimethyl-4-{(E)-2-[2-(4-methyl-cyclohexyl)-4-oxo-1,3,8-triaza-spiro[4.5]dec-1-ene-8-sulfonyl]-vinyl}-benzyl)-imidazolidine-2,4-dione]"
10,72%,"Cc1cc(CN2C(=O)NC(C)(C)C2=O)cc(C)c1/C=C/S(=O)(=O)N1CCC2(CC1)N=C(C1CCC(C)CC1)NC2=O (stereo not drawn) [Compound 519, 3-(3,5-dimethyl-4-{(E)-2-[2-(4-methyl-cyclohexyl)-4-oxo-1,3,8-triaza-spiro[4.5]dec-1-ene-8-sulfonyl]-vinyl}-benzyl)-5,5-dimethyl-imidazolidine-2,4-dione]"
11,28%,"Cc1cc(CN2CCCC2=O)cc(C)c1/C=C/S(=O)(=O)N1CCC2(CC1)N=C(C1CCC(C)CC1)NC2=O (stereo not drawn) [Compound 520, 8-{(E)-2-[2,6-dimethyl-4-(2-oxo-pyrrolidin-1-ylmethyl)-phenyl]-ethenesulfonyl}-2-(4-methyl-cyclohexyl)-1,3,8-triaza-spiro[4.5]dec-1-en-4-one]"
12,55%,"Cc1cc(CN2C(=O)CCC2=O)cc(C)c1/C=C/S(=O)(=O)N1CCC2(CC1)N=C(C1CCC(C)CC1)NC2=O (stereo not drawn) [Compound 521, 1-(3,5-dimethyl-4-{(E)-2-[2-(4-methyl-cyclohexyl)-4-oxo-1,3,8-triaza-spiro[4.5]dec-1-ene-8-sulfonyl]-vinyl}-benzyl)-pyrrolidine-2,5-dione]"
13,82%,"CC(=O)NCc1cc(C)c(/C=C/S(=O)(=O)N2CCC3(CC2)N=C(C2CCC(C)CC2)NC3=O)c(C)c1 (stereo not drawn) [Compound 522, N-(3,5-dimethyl-4-{(E)-2-[2-(4-methyl-cyclohexyl)-4-oxo-1,3,8-triaza-spiro[4.5]dec-1-ene-8-sulfonyl]-vinyl}-benzyl)-acetamide]"
14,89%,"CC(=O)N(C)c1cc(F)c(/C=C/S(=O)(=O)N2CCC3(CC2)N=C(C2CCC(C)CC2)NC3=O)c(F)c1 (stereo not drawn) [Compound 523, N-(3,5-difluoro-4-{(E)-2-[2-(4-methyl-cyclohexyl)-4-oxo-1,3,8-triaza-spiro[4.5]dec-1-ene-8-sulfonyl]-vinyl}-phenyl)-N-methyl-acetamide]"

# The remaining lines, values behind:
row,SMILES,cAMP production activity (%)
1,"CCOc1cc(NC(C)=O)ccc1/C=C/S(=O)(=O)N1CCC2(CC1)N=C(C1CCC(C)CC1)NC2=O (stereo not drawn) [Compound 509, N-(3-ethoxy-4-{(E)-2-[2-(4-methyl-cyclohexyl)-4-oxo-1,3,8-triaza-spiro[4.5]dec-1-ene-8-sulfonyl]-vinyl}-phenyl)-acetamide]",70%
2,"CCc1cc(NC(C)=O)ccc1/C=C/S(=O)(=O)N1CCC2(CC1)N=C(C1CCC(C)CC1)NC2=O (stereo not drawn) [Compound 510, N-(3-ethyl-4-{(E)-2-[2-(4-methyl-cyclohexyl)-4-oxo-1,3,8-triaza-spiro[4.5]dec-1-ene-8-sulfonyl]-vinyl}-phenyl)-acetamide]",57%
3,"COCc1cc(NC(C)=O)ccc1/C=C/S(=O)(=O)N1CCC2(CC1)N=C(C1CCC(C)CC1)NC2=O (stereo not drawn) [Compound 512, N-(3-methoxymethyl-4-{(E)-2-[2-(4-methyl-cyclohexyl)-4-oxo-1,3,8-triaza-spiro[4.5]dec-1-ene-8-sulfonyl]-vinyl}-phenyl)-acetamide]",49%
4,"O=C1NC(c2cccc(C(F)(F)F)c2)=NC12CCN(S(=O)(=O)/C=C/c1cccc3c1ccn3C[C@H](O)CO)CC2 [Compound 524, 8-{(E)-2-[1-((S)-2,3-dihydroxy-propyl)-1H-indol-4-yl]-ethenesulfonyl}-2-(3-trifluoromethyl-phenyl)-1,3,8-triaza-spiro[4.5]dec-1-en-4-one]",90%
5,"Cc1cc(N2C(=O)C[C@H](NC(=O)OC(C)(C)C)C2=O)ccc1/C=C/S(=O)(=O)N1CCC2(CC1)N=C(c1cccc(C(F)(F)F)c1)NC2=O [Compound 525, [(S)-1-(3-methyl-4-{(E)-2-[4-oxo-2-(3-trifluoromethyl-phenyl)-1,3,8-triaza-spiro[4.5]dec-1-ene-8-sulfonyl]-vinyl}-phenyl)-2,5-dioxo-pyrrolidin-3-yl]-carbamic acid tert-butyl ester]",14%
6,"O=C1NC(c2cccc(OC(F)(F)F)c2)=NC12CCN(S(=O)(=O)/C=C/c1cccc3c1ccn3C[C@H](O)CO)CC2 [Compound 526, 8-{(E)-2-[1-((S)-2,3-dihydroxy-propyl)-1H-indol-4-yl]-ethenesulfonyl}-2-(3-trifluoromethoxy-phenyl)-1,3,8-triaza-spiro[4.5]dec-1-en-4-one]",83%
7,"Cc1cc(C(=O)N2CCN(C)CC2)ccc1/C=C/S(=O)(=O)N1CCC2(CC1)N=C(c1cccc(OC(F)(F)F)c1)NC2=O [Compound 527, 8-{(E)-2-[2-methyl-4-(4-methyl-piperazine-1-carbonyl)-phenyl]-ethenesulfonyl}-2-(3-trifluoromethoxy-phenyl)-1,3,8-triaza-spiro[4.5]dec-1-en-4-one]",93%
8,"Cc1cc(NCC(=O)N2CCN(C)CC2)ccc1/C=C/S(=O)(=O)N1CCC2(CC1)N=C(c1cccc(OC(F)(F)F)c1)NC2=O [Compound 528, 8-((E)-2-{2-methyl-4-[2-(4-methyl-piperazin-1-yl)-2-oxo-ethylamino]-phenyl}-ethenesulfonyl)-2-(3-trifluoromethoxy-phenyl)-1,3,8-triaza-spiro[4.5]dec-1-en-4-one]",55%
9,"Cc1cc(NCC(N)=O)ccc1/C=C/S(=O)(=O)N1CCC2(CC1)N=C(c1cccc(OC(F)(F)F)c1)NC2=O [Compound 529, 2-(3-methyl-4-{(E)-2-[4-oxo-2-(3-trifluoromethoxy-phenyl)-1,3,8-triaza-spiro[4.5]dec-1-ene-8-sulfonyl]-vinyl}-phenylamino)-acetamide]",68%
10,"Cc1cc(S(=O)(=O)Nc2ccncc2)ccc1/C=C/S(=O)(=O)N1CCC2(CC1)N=C(c1cccc(OC(F)(F)F)c1)NC2=O [Compound 530, 3-methyl-4-{(E)-2-[4-oxo-2-(3-trifluoromethoxy-phenyl)-1,3,8-triaza-spiro[4.5]dec-1-ene-8-sulfonyl]-vinyl}-N-pyridin-4-yl-benzenesulfonamide]",18%
